In one assay the target is T1, CqsS (Vibrio cholerae serotype O1, UniProt Q9KM66).
T1 construct: endogenous in cells; host or cells: V. cholerae WN1102 (ΔcqsA ΔluxQ/pBB1), derived from C6706str2
As to the kind of experiment: cell-based. The settings on record: for Light production: strain WN1102; for EC50: light production, reporter strain WN1102, 4 h at 30 °C; for RLU: Strain WN1102.

The subject of another assay is qrr4. Format: cell-based. To be noted: LuxS-CqsA- strain + autoinducer; Rep 1-3.

Data on nine compounds can be found in PMC5467912, “Asymmetric regulation of quorum-sensing receptors drives autoinducer-specific gene expression programs in Vibrio cholerae” (PLoS Genetics, 2017).

Values joined by “and” are separate entries in the source; they are usually repeats but may differ in a detail not shown here. Equal values may be shown once.

T1 sequence (Q9KM66 whole entry, looked up): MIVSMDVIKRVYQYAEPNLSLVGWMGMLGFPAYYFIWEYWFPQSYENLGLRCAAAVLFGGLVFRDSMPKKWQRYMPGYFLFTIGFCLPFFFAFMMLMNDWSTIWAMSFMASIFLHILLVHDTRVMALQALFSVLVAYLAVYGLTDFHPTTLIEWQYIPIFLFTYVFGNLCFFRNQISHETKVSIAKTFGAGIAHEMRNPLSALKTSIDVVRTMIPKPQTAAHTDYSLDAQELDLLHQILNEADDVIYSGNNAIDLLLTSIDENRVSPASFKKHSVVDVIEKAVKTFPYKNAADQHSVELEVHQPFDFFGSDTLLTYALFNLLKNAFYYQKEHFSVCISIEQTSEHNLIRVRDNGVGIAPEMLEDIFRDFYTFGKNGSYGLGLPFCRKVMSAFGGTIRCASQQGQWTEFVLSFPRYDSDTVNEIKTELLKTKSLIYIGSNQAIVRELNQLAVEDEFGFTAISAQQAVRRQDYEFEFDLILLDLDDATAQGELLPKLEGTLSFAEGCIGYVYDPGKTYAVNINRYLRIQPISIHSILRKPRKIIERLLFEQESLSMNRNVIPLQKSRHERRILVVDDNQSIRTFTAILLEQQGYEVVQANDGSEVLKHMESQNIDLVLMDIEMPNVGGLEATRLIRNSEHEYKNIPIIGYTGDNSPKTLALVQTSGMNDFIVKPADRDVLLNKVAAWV

The term EC50 denotes the midpoint of the concentration-response curve. Low values mean higher potency in that assay, high ones lower potency in that assay. For `CCCn1nnnc1NCc1ccc(N(CC)CC)cc1` [#2], the Light production was 10481 RLU and 11875 RLU and 20274 RLU on CqsS (Agonist 0.0119209 nM); 11765 RLU and 13923 RLU and 13822 RLU at CqsS (Agonist 0.0476837 nM); 21584 RLU and 21176 RLU and 18763 RLU on CqsS (Agonist 0.190735 nM); 32000 RLU and 26047 RLU and 22456 RLU at CqsS (Agonist 0.762939 nM); 51860 RLU and 50633 RLU and 45087 RLU at CqsS (Agonist 3.05176 nM); 312292 RLU and 263721 RLU and 253642 RLU at CqsS (Agonist 12.207 nM). The Light production is 5147778 RLU and 5005576 RLU and 4962410 RLU at CqsS (Agonist 48.8281 nM); 29151080 RLU and 28675780 RLU and 30844170 RLU on CqsS (Agonist 195.312 nM); 78218700 RLU and 84853010 RLU and 92706410 RLU on CqsS (Agonist 781.25 nM); 94808130 RLU and 116685800 RLU and 113209800 RLU on CqsS (Agonist 3125 nM); 93694120 RLU and 114540600 RLU and 119989100 RLU at CqsS (Agonist 12500 nM); 88291390 RLU and 103481200 RLU and 109394800 RLU at CqsS (Agonist 50000 nM). The EC50 on CqsS amounted to 0.026 µM.

With `CCCn1nnnc1NCc1ccc(N2CCCC2)cc1` [#3], the Light production on CqsS (Agonist 0.0476837 nM) is 13269 RLU and 14460 RLU and 11456 RLU; on CqsS (Agonist 0.190735 nM) it was 18051 RLU and 20632 RLU and 16089 RLU; on CqsS (Agonist 0.762939 nM), 27556 RLU and 29263 RLU and 25287 RLU; on CqsS (Agonist 3.05176 nM) it was 53410 RLU and 57320 RLU and 53409 RLU; on CqsS (Agonist 12.207 nM) it was 598613 RLU and 571778 RLU and 545574 RLU; at CqsS (Agonist 48.8281 nM) it was 17729790 RLU and 16188200 RLU and 18180520 RLU. For the same compound, the Light production was 52331460 RLU and 53359300 RLU and 52422750 RLU at CqsS (Agonist 195.312 nM); 72153380 RLU and 70458940 RLU and 74315090 RLU at CqsS (Agonist 781.25 nM); 80807740 RLU and 76653980 RLU and 72594050 RLU at CqsS (Agonist 3125 nM); 69868890 RLU and 66115120 RLU and 65607710 RLU at CqsS (Agonist 12500 nM); 41204600 RLU and 38225840 RLU and 37314420 RLU on CqsS (Agonist 50000 nM). The “fold less potent than compound #1” value on CqsS (EC50 comparison) is given as “approximately 4 fold”. In addition, the EC50 at CqsS was 0.014 µM.

Turning to `CCCn1nnnc1NCc1ccc(C(C)C)cc1` [#4], the Light production on CqsS (Agonist 0.0119209 nM) was 12293 RLU and 13200 RLU and 7500 RLU; on CqsS (Agonist 0.0476837 nM), 18202 RLU and 15106 RLU and 14409 RLU; at CqsS (Agonist 0.190735 nM) it was 28023 RLU and 25417 RLU and 23860 RLU; at CqsS (Agonist 0.762939 nM), 52174 RLU and 73300 RLU and 48409 RLU; at CqsS (Agonist 3.05176 nM) it was 246211 RLU and 267975 RLU and 261469 RLU; on CqsS (Agonist 12.207 nM), 3790123 RLU and 3428043 RLU and 3340791 RLU. Also, the Light production on CqsS (Agonist 48.8281 nM) is 19838010 RLU and 18010170 RLU and 17447160 RLU; on CqsS (Agonist 195.312 nM) it was 61742000 RLU and 56850120 RLU and 54681960 RLU; on CqsS (Agonist 781.25 nM), 104719700 RLU and 101045100 RLU and 95346500 RLU; at CqsS (Agonist 3125 nM) it was 119868200 RLU and 118607300 RLU and 107846700 RLU; at CqsS (Agonist 12500 nM), 122328400 RLU and 118368100 RLU and 108047500 RLU; on CqsS (Agonist 50000 nM), 103497500 RLU and 101746000 RLU and 97356600 RLU. Besides, the EC50 at CqsS is 0.007 µM.

For `CCn1nnnc1NCc1ccc(C(C)C)cc1` [#5], the Light production at CqsS (Agonist 0.0119209 nM) is 22342 RLU and 16526 RLU and 20189 RLU; on CqsS (Agonist 0.0476837 nM) it was 18351 RLU and 14922 RLU and 16393 RLU; on CqsS (Agonist 0.190735 nM) it was 24222 RLU and 32473 RLU and 30802 RLU; at CqsS (Agonist 0.762939 nM), 43006 RLU and 46460 RLU and 51236 RLU; on CqsS (Agonist 3.05176 nM), 215673 RLU and 187636 RLU and 197250 RLU; at CqsS (Agonist 12.207 nM), 3692444 RLU and 3488605 RLU and 3831864 RLU. The Light production at CqsS (Agonist 48.8281 nM) was 25448660 RLU and 29298250 RLU and 27925710 RLU; on CqsS (Agonist 195.312 nM), 71515280 RLU and 80802780 RLU and 79358510 RLU; on CqsS (Agonist 781.25 nM), 95077870 RLU and 111974800 RLU and 120784000 RLU; on CqsS (Agonist 3125 nM), 107051300 RLU and 126535100 RLU and 129294500 RLU; at CqsS (Agonist 12500 nM) it was 98996430 RLU and 113608500 RLU and 123733600 RLU; at CqsS (Agonist 50000 nM), 91459320 RLU and 107555000 RLU and 106482900 RLU. The compound further yielded an EC50 on CqsS of 0.008 µM.

In the case of `c1cc(N2CCCC2)ccc1CNc1nnn[nH]1` [#6], the CqsS agonist activity result at CqsS (S10 Fig) is given as “loses all activity”. The RLU on CqsS (agonist 0.762939 nM) was 2.15E+03 RLU and 2.08E+03 RLU and 4.10E+03 RLU; on CqsS (agonist 12.207 nM), 2.13E+03 RLU and 2.35E+03 RLU and 4.10E+03 RLU; at CqsS (agonist 48.8281 nM), 2.14E+03 RLU and 2.26E+03 RLU and 4.12E+03 RLU; on CqsS (agonist 195.312 nM) it was 6.45E+03 RLU and 4.19E+03 RLU and 4.17E+03 RLU; at CqsS (agonist 50000 nM), 6.42E+03 RLU and 4.10E+03 RLU and 6.49E+03 RLU.

With `CCC(C)NC(=O)Cc1ccc(-c2ccccc2)cc1` (centres unmarked) [#7], the Light production is 14566 RLU and 10667 RLU and 7878.8 RLU at CqsS (Agonist 0.0119209 nM); 16089 RLU and 13267 RLU and 10570 RLU on CqsS (Agonist 0.0476837 nM); 18864 RLU and 15385 RLU and 12553 RLU at CqsS (Agonist 0.190735 nM); 24094 RLU and 21702 RLU and 17241 RLU on CqsS (Agonist 0.762939 nM); 32638 RLU and 25814 RLU and 24906 RLU at CqsS (Agonist 3.05176 nM); 48047 RLU and 41582 RLU and 31818 RLU at CqsS (Agonist 12.207 nM). The Light production at CqsS (Agonist 48.8281 nM) was 81242 RLU and 67619 RLU and 51844 RLU; at CqsS (Agonist 195.312 nM) it was 183313 RLU and 159529 RLU and 160500 RLU; on CqsS (Agonist 781.25 nM) it was 10770860 RLU and 8237516 RLU and 9173585 RLU; at CqsS (Agonist 3125 nM), 90855490 RLU and 84011930 RLU and 82291170 RLU; at CqsS (Agonist 12500 nM) it was 122744100 RLU and 104793600 RLU and 103467300 RLU; on CqsS (Agonist 50000 nM) it was 104239700 RLU and 95731630 RLU and 92148540 RLU. Also, the concentration for a half-maximal effect (EC50) at CqsS is 0.403 µM.

In the case of `O=C(Cc1ccc(-c2ccccc2)cc1)NC1CCC1` [#8], the Light production was 17900 RLU and 10791 RLU and 14350 RLU on CqsS (Agonist 0.0119209 nM); 11100 RLU and 15000 RLU and 11881 RLU on CqsS (Agonist 0.0476837 nM); 26990 RLU and 16080 RLU and 18824 RLU at CqsS (Agonist 0.190735 nM); 24950 RLU and 23905 RLU at CqsS (Agonist 0.762939 nM); 48627 RLU and 40000 RLU and 32706 RLU at CqsS (Agonist 3.05176 nM); 75176 RLU and 69890 RLU and 67191 RLU at CqsS (Agonist 12.207 nM). Moreover, the Light production on CqsS (Agonist 48.8281 nM) is 1115870 RLU and 738497 RLU and 676886 RLU; on CqsS (Agonist 195.312 nM), 40840900 RLU and 39570670 RLU and 37676260 RLU; at CqsS (Agonist 781.25 nM), 91907700 RLU and 100480500 RLU and 102019900 RLU; on CqsS (Agonist 3125 nM) it was 92588910 RLU and 118830300 RLU and 113054700 RLU; on CqsS (Agonist 12500 nM), 89613410 RLU and 99998040 RLU and 103728600 RLU; at CqsS (Agonist 50000 nM) it was 78185000 RLU and 81850050 RLU and 75936470 RLU. In addition, on CqsS, the concentration giving a half-maximal response (EC50) is 0.053 µM.

For `O=C(Cc1ccc(-c2ccccn2)cc1)NC1CCCC1` [#9], the Light production on CqsS (Agonist 0.0119209 nM) is 8704.7 RLU and 9014.1 RLU and 7722.8 RLU; at CqsS (Agonist 0.0476837 nM), 11317 RLU and 7830.7 RLU and 9751.2 RLU; at CqsS (Agonist 0.190735 nM), 10595 RLU and 11217 RLU and 6363.6 RLU; on CqsS (Agonist 0.762939 nM), 13636 RLU and 11364 RLU and 8044.7 RLU; at CqsS (Agonist 3.05176 nM), 16879 RLU and 13647 RLU and 11676 RLU; at CqsS (Agonist 12.207 nM), 22994 RLU and 16264 RLU and 15148 RLU. Moreover, the Light production at CqsS (Agonist 48.8281 nM) was 32335 RLU and 27200 RLU and 23011 RLU; on CqsS (Agonist 195.312 nM) it was 55190 RLU and 44311 RLU and 39030 RLU; on CqsS (Agonist 781.25 nM), 108075 RLU and 97949 RLU and 93072 RLU; on CqsS (Agonist 3125 nM), 7362143 RLU and 7832704 RLU and 8085455 RLU; on CqsS (Agonist 12500 nM), 55377500 RLU and 53818320 RLU and 53583010 RLU; on CqsS (Agonist 50000 nM), 93123590 RLU and 90629940 RLU and 93211830 RLU. The compound further gave an EC50 at CqsS of 1.72 µM.

Turning to `CCCCCCCCCC(=O)[C@@H](O)CC` [CAI], the “RLU, average per biological replicate (Totals)” value in the assay with qrr4 was 2.55E+08 RLU and 2.82E+08 RLU and 3.63E+08 RLU.
